Patent US10835533B2, “1 -((3S,4R)-4-(3-fluorophenyl)-1-(2-methoxyethyl)pyrrolidin-3-yl)-3-(4-methyl-3-(2-methylpyrimidin-5-yl)-1-phenyl-1H-pyrazol-5-yl)urea as a TrkA kinase inhibitor” (Array BioPharma Inc., priority 2014, dated 2020)

Tests used:
[1] = biological target: T1, His-tagged recombinant human TrkA (Homo sapiens, UniProt P04629); experiment: TrkA LanthaScreen Eu Kinase Binding Assay (Example A); conditions: assay of Example A; 60-minute incubation at 22° C.; read-out: averaged IC50 value, TrkA binding
T1 construct: 6HIS tagged cytoplasmic domain from Invitrogen, Catalog No. PV3144; purchased Invitrogen PV3144
T1 sequence (P04629 440-796 limits assumed): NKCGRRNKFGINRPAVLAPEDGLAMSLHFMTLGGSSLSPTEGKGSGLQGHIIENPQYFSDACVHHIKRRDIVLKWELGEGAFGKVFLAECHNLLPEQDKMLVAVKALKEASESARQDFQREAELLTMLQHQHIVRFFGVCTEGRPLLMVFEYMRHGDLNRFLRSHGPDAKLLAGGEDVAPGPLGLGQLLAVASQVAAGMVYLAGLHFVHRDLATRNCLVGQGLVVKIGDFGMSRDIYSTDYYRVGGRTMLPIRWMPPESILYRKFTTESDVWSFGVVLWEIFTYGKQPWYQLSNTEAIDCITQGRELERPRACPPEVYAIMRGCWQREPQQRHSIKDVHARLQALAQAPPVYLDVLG
Procedure: TrkA binding activity was determined in a TrkA LanthaScreen™ Eu Kinase Binding Assay. 5 nM His-tagged recombinant human TrkA (6HIS tagged cytoplasmic domain from Invitrogen, Catalog No. PV3144) was incubated with 4 nM Alexa-Fluor® Tracer 236 (Invitrogen Catalog No. PV5592), 2 nM biotinylated anti-His (Invitrogen Cat. No. PV6090), and 2 nM europium-labeled Streptavidin (Invitrogen Cat. No. PV5899), in buffer (25 mM MOPS, pH 7.5, 5 mM MgCl2, 0.005% Triton X-100). Three fold serial dilutions of Compound 1, compound 2 or compound 3 in DMSO were added to a final percentage of 2% DMSO. After 60-minute incubation at 22° C., the reaction was measured using the EnVision mutlimode plate reader (PerkinElmer) via TR-FRET dual wavelength detection at […]. The percent of control was calculated using a ratiometric emission factor. The IC50 value was determined by fitting a four parameter model to the percent of control data.

[2] = Liver microsomal clearance, human; type: in vitro ADME; conditions: pH 7.4; Human liver microsomes; 1 mg/mL; 20 minutes
Procedure: The predicted hepatic clearance (CLh) value was calculated by scaling the in vitro half-life (t1/2) for stability of the compound in liver microsomes (1 mg/mL; 20 minutes) using the physical and physiological scaling factors used to predict intrinsic clearance (CLint) and hepatic clearance (CLhep) listed in Table 2 and employed in the following equations: […]
where D is the amount of cytochrome P450-related protein per mass of liver, W is the average mass of liver present per weight of animal, C is the liver microsomal concentration, and Q is the species-dependent hepatic blood flow.
A 100 mM potassium phosphate assay buffer solution (KPB) was prepared as follows. Both KH2PO4 and K2HPO4 were dissolved separately in reagent grade water resulting in final concentrations 100 mM. A 75:25 mixture v/v of K2HPO4:KH2PO4 was prepared and the pH of the solution was adjusted to 7.4 using diluted HCl or diluted NaOH solutions. Stock solutions of Compound 1, Compound 2 and Compound 3 were prepared at 10 mM (active compound) in DMSO. The stock solution was diluted immediately before use to 2.5 μM using the KPB solution to create the working standard. All test compounds were completely soluble in DMSO by visual inspection at room temperature. The NADPH-regenerating solution (NRS) was prepared on the day of analysis by diluting one volume of 17 mg/mL NADP^+ with one volume of 78 mg/mL glucose-6-phosphate (both prepared in KPB, pH 7.4) and 7.9 volumes of 20 mM MgCl2. The final concentrations of NADP^+ and glucose-6-phosphate were 1.7 mg/mL and 7.8 mg/mL, respectively. […]
All calculations were performed using BioAssay Enterprise. The mean peak area ratios were calculated by averaging the peak area ratios (n=2) of Compound 1, Compound 2, Compound 3, and the internal standard for each sample. Percent remaining was calculated by determining the ratio of the peak area ratio at each time point to the peak area ratio of the time-zero samples. The rate of loss of test compound (km) was determined by linear regression of −ln(f(t)) versus time. […] The t1/2 was determined dividing ln(2) by km. […]

IC50 [1] [nM] | CLhep predicted at 1 μM [2] [mL/min/kg] | Structure (SMILES)
1.1 | 9.8 | COCCN1C[C@@H](NC(=O)Nc2c(C)c(-c3cnc(C)nc3)nn2-c2ccccc2)[C@H](c2cccc(F)c2)C1 [Compound 1, 1-((3S,4R)-4-(3-fluorophenyl)-1-(2-methoxyethyl)pyrrolidin-3-yl)-3-(4-methyl-3-(2-methylpyrimidin-5-yl)-1-phenyl-1H-pyrazol-5-yl)urea]
1.5 | 14 | COCCN1C[C@@H](NC(=O)Nc2c(C)c(-c3cnc(C)nc3)nn2-c2ccccc2)[C@H](c2ccc(F)c(F)c2)C1 [Compound 2, 1-((3S,4R)-4-(3,4-difluorophenyl)-1-(2-methoxyethyl)pyrrolidin-3-yl)-3-(4-methyl-3-(2-methylpyrimidin-5-yl)-1-phenyl-1H-pyrazol-5-yl)urea]
1.7 | 10 | COCCN1C[C@@H](NC(=O)Nc2c(C)c(-c3cnn(C)c3)nn2-c2ccccc2)[C@H](c2ccc(F)cc2)C1 [Compound 3, 1-(1′,4-dimethyl-1-phenyl-1H,1′H-[3,4′-bipyrazol]-5-yl)-3-((3S,4R)-4-(4-fluorophenyl)-1-(2-methoxyethyl)pyrrolidin-3-yl)urea]
